Source: PMC8212709 (Clinical and Translational Science, 2021)

Test: Phase I SRD/MRD safety and tolerability
Type: in vivo, human (healthy subjects)

C=CC(=O)N1CC[C@H](Oc2nc(-c3n[nH]c(=O)[nH]3)cc3ccccc23)C1 [TAK‐020]
No subject: clinical laboratory test results (including liver function tests), vital sign findings, cytopenias, or ECG results reported as a TEAE (SRD and MRD parts)
3 (5.6) n (%): TEAEs, Not related (SRD Overall TAK‐020 (N = 54)) | TEAEs, Related (SRD Overall TAK‐020 (N = 54))
2 (33.3) n (%): TEAEs, Related (MRD 5.75 mg q.d. (n = 6)) | TEAEs, Not related (MRD 13 mg q.d. (n = 6)) | TEAEs (MRD 25 mg q.d. (n = 6)) | TEAEs, Mild (MRD 25 mg q.d. (n = 6)) | TEAEs, Not related (MRD 25 mg q.d. (n = 6))
11.1%: subjects with study treatment‐related TEAEs (MRD, overall TAK‐020 group (four subjects))
0 n (%): Deaths (MRD 3.75 mg q.d. (n = 6)) | Serious TEAEs (MRD 3.75 mg q.d. (n = 6)) | Serious TEAEs, Not related (MRD 3.75 mg q.d. (n = 6)) | Serious TEAEs, Related (MRD 3.75 mg q.d. (n = 6)) | TEAEs Leading to DC (MRD 3.75 mg q.d. (n = 6)) | TEAEs, Moderate (MRD 3.75 mg q.d. (n = 6)) | TEAEs, Not related (MRD 3.75 mg q.d. (n = 6)) | TEAEs, Severe (MRD 3.75 mg q.d. (n = 6)) | Deaths (MRD 5.75 mg q.d. (n = 6)) | Serious TEAEs (MRD 5.75 mg q.d. (n = 6)) | Serious TEAEs, Not related (MRD 5.75 mg q.d. (n = 6)) | Serious TEAEs, Related (MRD 5.75 mg q.d. (n = 6)) | TEAEs Leading to DC (MRD 5.75 mg q.d. (n = 6)) | TEAEs, Moderate (MRD 5.75 mg q.d. (n = 6)) | TEAEs, Severe (MRD 5.75 mg q.d. (n = 6)) | Deaths (MRD 13 mg q.d. (n = 6)) | Serious TEAEs (MRD 13 mg q.d. (n = 6)) | Serious TEAEs, Not related (MRD 13 mg q.d. (n = 6)) | Serious TEAEs, Related (MRD 13 mg q.d. (n = 6)) | TEAEs Leading to DC (MRD 13 mg q.d. (n = 6)) | TEAEs, Moderate (MRD 13 mg q.d. (n = 6)) | TEAEs, Severe (MRD 13 mg q.d. (n = 6)) | Deaths (MRD 25 mg q.d. (n = 6)) | Serious TEAEs (MRD 25 mg q.d. (n = 6)) | Serious TEAEs, Not related (MRD 25 mg q.d. (n = 6)) | Serious TEAEs, Related (MRD 25 mg q.d. (n = 6)) | TEAEs Leading to DC (MRD 25 mg q.d. (n = 6)) | TEAEs, Moderate (MRD 25 mg q.d. (n = 6)) | TEAEs, Related (MRD 25 mg q.d. (n = 6)) | TEAEs, Severe (MRD 25 mg q.d. (n = 6)) | Deaths (MRD 45 mg q.d. (n = 6)) | Serious TEAEs (MRD 45 mg q.d. (n = 6)) | Serious TEAEs, Not related (MRD 45 mg q.d. (n = 6)) | Serious TEAEs, Related (MRD 45 mg q.d. (n = 6)) | TEAEs Leading to DC (MRD 45 mg q.d. (n = 6)) | TEAEs, Moderate (MRD 45 mg q.d. (n = 6)) | TEAEs, Related (MRD 45 mg q.d. (n = 6)) | TEAEs, Severe (MRD 45 mg q.d. (n = 6)) | Deaths (MRD 60 mg q.d. (n = 6)) | Serious TEAEs (MRD 60 mg q.d. (n = 6)) | Serious TEAEs, Not related (MRD 60 mg q.d. (n = 6)) | Serious TEAEs, Related (MRD 60 mg q.d. (n = 6)) | TEAEs Leading to DC (MRD 60 mg q.d. (n = 6)) | TEAEs, Moderate (MRD 60 mg q.d. (n = 6)) | TEAEs, Related (MRD 60 mg q.d. (n = 6)) | TEAEs, Severe (MRD 60 mg q.d. (n = 6)) | Deaths (MRD Overall TAK‐020 (N = 36)) | Serious TEAEs (MRD Overall TAK‐020 (N = 36)) | Serious TEAEs, Not related (MRD Overall TAK‐020 (N = 36)) | Serious TEAEs, Related (MRD Overall TAK‐020 (N = 36)) | TEAEs Leading to DC (MRD Overall TAK‐020 (N = 36)) | TEAEs, Moderate (MRD Overall TAK‐020 (N = 36)) | TEAEs, Severe (MRD Overall TAK‐020 (N = 36)) | Deaths (SRD Overall TAK‐020 (N = 54)) | Serious TEAEs (SRD Overall TAK‐020 (N = 54)) | Serious TEAEs, Not related (SRD Overall TAK‐020 (N = 54)) | Serious TEAEs, Related (SRD Overall TAK‐020 (N = 54)) | TEAEs Leading to DC (SRD Overall TAK‐020 (N = 54)) | TEAEs, Moderate (SRD Overall TAK‐020 (N = 54)) | TEAEs, Severe (SRD Overall TAK‐020 (N = 54)) | Deaths (SRD single dose 0.1 mg (n = 6)) | Serious TEAEs (SRD single dose 0.1 mg (n = 6)) | Serious TEAEs, Not related (SRD single dose 0.1 mg (n = 6)) | Serious TEAEs, Related (SRD single dose 0.1 mg (n = 6))
1 (16.7) n (%): TEAEs (MRD 3.75 mg q.d. (n = 6)) | TEAEs, Mild (MRD 3.75 mg q.d. (n = 6)) | TEAEs, Related (MRD 3.75 mg q.d. (n = 6)) | TEAEs, Not related (MRD 5.75 mg q.d. (n = 6)) | TEAEs, Related (MRD 13 mg q.d. (n = 6)) | TEAEs (MRD 45 mg q.d. (n = 6)) | TEAEs, Mild (MRD 45 mg q.d. (n = 6)) | TEAEs, Not related (MRD 45 mg q.d. (n = 6)) | TEAEs (MRD 60 mg q.d. (n = 6)) | TEAEs, Mild (MRD 60 mg q.d. (n = 6)) | TEAEs, Not related (MRD 60 mg q.d. (n = 6))
11 (30.6) n (%): TEAEs (MRD Overall TAK‐020 (N = 36)) | TEAEs, Mild (MRD Overall TAK‐020 (N = 36))
30.6%: percentage of subjects who had TEAEs (MRD, overall TAK‐020 group)
3 (50.00) n (%): TEAEs (MRD 13 mg q.d. (n = 6))
3 (50.0) n (%): TEAEs (MRD 5.75 mg q.d. (n = 6)) | TEAEs, Mild (MRD 5.75 mg q.d. (n = 6)) | TEAEs, Mild (MRD 13 mg q.d. (n = 6))
4 (11.1) n (%): TEAEs, Related (MRD Overall TAK‐020 (N = 36))
6 (11.1) n (%): TEAEs (SRD Overall TAK‐020 (N = 54)) | TEAEs, Mild (SRD Overall TAK‐020 (N = 54))
7 (19.4) n (%): TEAEs, Not related (MRD Overall TAK‐020 (N = 36))
